In patent publication US12559529B2, “NPY2 receptor agonists” (Boehringer Ingelheim International GmbH, priority 2019, dated 2026):

Assays:
normal NMRI mice = assay: Effect on acute food intake in normal NMRI mice; assay type: in vivo; details: male NMRI mice, 10 nmol/kg subcutaneously once
How it was run: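 A single 10 nmol/kg s.c. peptide dose was given 1 h before lights-off to male NMRI mice fasted from 6 h before the night phase (n=7-8). Intake was recorded continuously by microchip-identified HM-2 feeding channels. Values are normalized to vehicle controls (50 mM phosphate buffer pH7 with 5% Mannitol).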

[1] = target: T1, Human Neuropeptide Y2 Receptor (Homo sapiens, UniProt P49146); assay: Radioligand binding competition assay (RLB); details: Table 3; human 125I-PYY (1-36) 0.02 nM, Y2 receptor membranes; read-out: Ki
T1 construct: purchased CHEMICON HTS066M
T1 sequence (P49146 1-381): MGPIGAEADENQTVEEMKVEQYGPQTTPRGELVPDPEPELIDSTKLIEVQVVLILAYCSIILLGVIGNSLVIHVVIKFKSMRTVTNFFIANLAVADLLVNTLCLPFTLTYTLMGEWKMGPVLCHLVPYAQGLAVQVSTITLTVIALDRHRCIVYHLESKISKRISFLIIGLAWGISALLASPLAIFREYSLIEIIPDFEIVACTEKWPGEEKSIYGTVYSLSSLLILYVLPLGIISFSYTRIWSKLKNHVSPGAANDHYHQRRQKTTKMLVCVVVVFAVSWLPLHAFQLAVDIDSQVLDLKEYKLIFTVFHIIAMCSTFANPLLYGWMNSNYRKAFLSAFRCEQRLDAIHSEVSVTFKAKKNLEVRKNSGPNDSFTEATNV
How it was run: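 Competition binding at commercial human NPY Y2 membrane preparations, 0.5 μg protein per well, 2 h incubation at room temperature. Bound and free ligand were separated on GF/C filters and counted; IC50 was fitted by nonlinear regression.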

Structure (SMILES) | Acute Food Intake 24 h [% vehicle] (normal NMRI mice) | Ki [1]
CC(C)CC(=O)N[C@@H](C)C(=O)N1CCC[C@H]1C(=O)N[C@@H](CCC(=O)O)C(=O)N[C@@H](CCCCNC(=O)COCCOCCNC(=O)COCCOCCNC(=O)CC[C@H](NC(=O)CCCCCCCCCCCCCCCCC(=O)O)C(=O)O)C(=O)N1CCC[C@H]1C(=O)N[C@@H](CCC(=O)O)C(=O)N[C@@H](CCC(=O)O)C(=O)N[C@@H](CC(=O)O)C(=O)N[C@@H](C)C(=O)N[C@H](C(=O)N1CCC[C@H]1C(=O)N[C@@H](CCC(=O)O)C(=O)N[C@@H](CCC(=O)O)C(=O)N[C@@H](CC(C)C)C(=O)N[C@@H](CCC(N)=O)C(=O)N[C@@H](CCCNC(=N)N)C(=O)N[C@@H](Cc1ccc(O)cc1)C(=O)N[C@@H](Cc1ccc(O)cc1)C(=O)N[C@H](C(=O)N[C@@H](CCC(=O)O)C(=O)N[C@@H](CC(C)C)C(=O)N[C@@H](CCCNC(=N)N)C(=O)N[C@@H](Cc1c[nH]cn1)C(=O)N[C@@H](Cc1ccc(O)cc1)C(=O)N[C@@H](Cc1ccc(O)cc1)C(=O)N[C@@H](CC(N)=O)C(=O)N[C@@H](Cc1c[nH]c2ccccc12)C(=O)N[C@@H](CC(C)C)C(=O)N[C@H](C(=O)N[C@@H](CCCNC(=N)N)C(=O)N[C@@H](CCC(N)=O)C(=O)N[C@@H](CCCNC(=N)N)C(=O)N[C@@H](Cc1ccc(O)cc1)C(N)=O)[C@@H](C)O)C(C)C)[C@@H](C)O [Compound 101, N{alpha-4}-(3-methylbutanoyl)-N{epsilon-7}-[2-(2-{2-[2-(2-{2-[(4S)-4-carboxy-4-(17-carboxyheptadecanamido)butanamido]ethoxy}ethoxy)acetamido]ethoxy}ethoxy)acetamido]-[4A,7K,9E,13T,18Q,22V,23E,28Y,30W,31L]hPYY (4-36)] | 63 % vehicle | 3.29 nM
CC(C)CC(=O)N[C@@H](C)C(=O)N1CCC[C@H]1C(=O)N[C@@H](C)C(=O)N[C@@H](CCCCNC(=O)COCCOCCNC(=O)COCCOCCNC(=O)CC[C@H](NC(=O)CCCCCCCCCCCCCCCCC(=O)O)C(=O)O)C(=O)N1CCC[C@H]1C(=O)N[C@@H](CCC(=O)O)C(=O)N[C@@H](CCC(=O)O)C(=O)N[C@@H](CC(=O)O)C(=O)N[C@@H](C)C(=O)N[C@@H](CO)C(=O)N[C@@H](CCC(=O)O)C(=O)N[C@@H](CCC(=O)O)C(=O)N[C@@H](CCC(=O)O)C(=O)N[C@@H](CC(C)C)C(=O)N[C@@H](CCC(N)=O)C(=O)N[C@@H](CCCNC(=N)N)C(=O)N[C@@H](Cc1ccc(O)cc1)C(=O)N[C@@H](Cc1ccc(O)cc1)C(=O)N[C@H](C(=O)N[C@@H](CO)C(=O)N[C@@H](CC(C)C)C(=O)N[C@@H](CCCNC(=N)N)C(=O)N[C@@H](Cc1c[nH]cn1)C(=O)N[C@@H](Cc1ccc(O)cc1)C(=O)N[C@@H](Cc1ccc(O)cc1)C(=O)N[C@@H](CC(N)=O)C(=O)N[C@@H](Cc1c[nH]c2ccccc12)C(=O)N[C@@H](CC(C)C)C(=O)N[C@H](C(=O)N[C@@H](CCCNC(=N)N)C(=O)N[C@@H](CCC(N)=O)C(=O)N[C@@H](CCCNC(=N)N)C(=O)N[C@@H](Cc1ccc(O)cc1)C(N)=O)[C@@H](C)O)C(C)C [Compound 103, N{alpha-4}-(3-methylbutanoyl)-N{epsilon-7}-[2-(2-{2-[2-(2-{2-[(4S)-4-carboxy-4-(17-carboxyheptadecanamido)butanamido]ethoxy}ethoxy)acetamido]ethoxy}ethoxy)acetamido]-[4A,6A,7K,9E,14E,18Q,22V,28Y,30W,31L]hPYY (4-36)] | 67 % vehicle | 0.95 nM
